One assay has as its target T1, Human Factor XIIa (Homo sapiens, UniProt P00748).
T1 construct: purchased Enzyme Research Laboratories
T1 sequence (P00748 373-615 limits assumed): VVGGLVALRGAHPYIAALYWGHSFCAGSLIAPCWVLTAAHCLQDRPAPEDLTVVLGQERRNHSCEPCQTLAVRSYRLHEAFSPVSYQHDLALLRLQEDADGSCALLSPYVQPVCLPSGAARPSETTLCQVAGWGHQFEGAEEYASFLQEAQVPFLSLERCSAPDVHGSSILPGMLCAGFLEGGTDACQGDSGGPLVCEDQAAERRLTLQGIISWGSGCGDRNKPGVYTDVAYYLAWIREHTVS
T1 sequence (P00748 20-372 partner limits assumed): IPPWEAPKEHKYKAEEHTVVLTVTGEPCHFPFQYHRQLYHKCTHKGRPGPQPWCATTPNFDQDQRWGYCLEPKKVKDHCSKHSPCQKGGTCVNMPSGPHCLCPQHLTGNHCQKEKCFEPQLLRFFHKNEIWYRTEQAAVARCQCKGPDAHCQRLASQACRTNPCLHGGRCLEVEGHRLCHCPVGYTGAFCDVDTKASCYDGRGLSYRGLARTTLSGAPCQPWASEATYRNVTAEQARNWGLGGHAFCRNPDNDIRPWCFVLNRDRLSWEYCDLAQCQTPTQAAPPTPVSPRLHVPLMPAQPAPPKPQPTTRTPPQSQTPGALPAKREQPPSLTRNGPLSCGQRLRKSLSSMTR
Briefly: Determination of Factor XIIa inhibitory activity in vitro (fluorogenic substrate H-DPro-Phe-Arg-AFC). Format: biochemical. Particulars: Human Factor XIIa (Enzyme Research Laboratories), 25° C., read-out: Human FXIIa IC50. The essentials: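 In vitro inhibition of human Factor XIIa (sourced from Enzyme Research Laboratories) was measured by incubating the enzyme at 25° C. with the fluorogenic substrate H-DPro-Phe-Arg-AFC across a range of test compound concentrations. The initial reaction rate, taken as residual enzyme activity, was followed by the […], and IC50 values were calculated.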

A further assay has as its target T2, Human FXIa (Homo sapiens, UniProt P03951).
T2 construct: purchased Enzyme Research Laboratories
In words: Determination of FXIa inhibitory activity in vitro (fluorogenic substrate Z-Gly-Pro-Arg-AFC). In kind it is biochemical. The conditions noted are these: Selectivity, Human FXIa (Enzyme Research Laboratories), 25° C.

T2 sequence (P03951 388-625 limits assumed): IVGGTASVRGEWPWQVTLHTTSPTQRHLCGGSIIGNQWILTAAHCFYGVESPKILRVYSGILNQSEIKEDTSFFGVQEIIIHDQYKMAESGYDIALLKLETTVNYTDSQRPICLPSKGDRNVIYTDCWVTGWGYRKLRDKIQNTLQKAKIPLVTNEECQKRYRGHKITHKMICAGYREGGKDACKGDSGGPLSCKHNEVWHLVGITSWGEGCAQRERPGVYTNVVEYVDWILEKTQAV
T2 sequence (P03951 19-387 partner limits assumed): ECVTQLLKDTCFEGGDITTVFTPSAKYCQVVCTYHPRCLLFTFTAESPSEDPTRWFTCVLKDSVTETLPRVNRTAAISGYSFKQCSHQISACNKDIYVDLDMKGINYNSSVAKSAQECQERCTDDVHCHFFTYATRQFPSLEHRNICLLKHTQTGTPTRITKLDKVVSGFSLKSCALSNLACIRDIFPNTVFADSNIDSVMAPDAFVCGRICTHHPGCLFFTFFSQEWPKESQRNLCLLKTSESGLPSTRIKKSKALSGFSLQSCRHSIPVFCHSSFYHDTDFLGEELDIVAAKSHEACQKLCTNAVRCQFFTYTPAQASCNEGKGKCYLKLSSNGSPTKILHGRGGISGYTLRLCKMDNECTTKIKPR

In general, IC50 refers to the midpoint of a concentration-inhibition curve. For `COCCN1CCC(Nc2ncc(C(=O)NCc3ccc4c(N)nccc4c3)cc2Cl)CC1` [Example 11.41], the IC50 on Human Factor XIIa is 10 to 40 µM; at Human FXIa, greater than 40 µM.

Consider `Nc1nccc2cc(CNC(=O)c3cnc(NC4CCNCC4)c(Cl)c3)ccc12` [Example 11.34], for which the values for the IC50 at Human Factor XIIa and against Human FXIa were 10 to 40 µM and greater than 40 µM, respectively.

Take `CN(CC1CCN(c2ccncc2)CC1)c1ncc(C(=O)NCc2ccc3c(N)nccc3c2)cc1Cl` [Example 8.09, N-[(1-amino-6-isoquinolyl)methyl]-5-chloro-6-[methyl-[[1-(4-pyridyl)-4-piperidyl]methyl]amino]pyridine-3-carboxamide]: the IC50 is 1 to 3 µM at Human Factor XIIa and greater than 40 µM at Human FXIa.

For `CC(C)N1CCCC(C(=O)Nc2ncc(Cl)cc2C(=O)NCc2ccc3c(N)nccc3c2)C1` (stereo not drawn) [Example 1.69], the IC50 at Human Factor XIIa is 3 to 10 µM; at Human FXIa, greater than 40 µM.

Consider `CN1CCC(CNc2nccnc2C(=O)Nc2ccc3ccnc(N)c3c2)CC1` [Example 33.04], for which the results for the half-maximal inhibitory concentration (IC50) on Human Factor XIIa and against Human FXIa were 10 to 40 µM and greater than 40 µM, respectively.

Consider `CN1CCC(CNc2nccnc2C(=O)Nc2ccc(-c3n[nH]c(=O)[nH]3)cc2)CC1` [Example 33.11], for which the 50% inhibitory concentration (IC50) was 10 to 40 µM on Human Factor XIIa and greater than 40 µM on Human FXIa.
